The source of these data is patent US20240208992A1, “MACROCYCLES AS CFTR MODULATORS” (Idorsia Pharmaceuticals Ltd, priority 2021, published 2024).

For this test, the target named is human F508del-CFTR (Homo sapiens, UniProt P13569, DEL508-508). Kind of test: F508del-CFTR cell surface expression (corrector activity), DiscoveRx ß-galactosidase complementation chemiluminescence assay in recombinant U2OS cell line.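 As to all read-outs here: U2OS cells co-expressing ProLink-tagged F508del-CFTR and a membrane-anchored enzyme acceptor, where more surface CFTR restores β-galactosidase activity measured by chemiluminescence.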 Particulars: U2OS cell line, 16h compound incubation; for EC50: EC50, F508del-CFTR cell surface expression, geomean values; for Emax: in relation to the Emax of the corrector lumacaftor (=100%), arithmetic mean values.
Chain of human F508del-CFTR (P13569 with tags, fused parts or gaps DEL508-508): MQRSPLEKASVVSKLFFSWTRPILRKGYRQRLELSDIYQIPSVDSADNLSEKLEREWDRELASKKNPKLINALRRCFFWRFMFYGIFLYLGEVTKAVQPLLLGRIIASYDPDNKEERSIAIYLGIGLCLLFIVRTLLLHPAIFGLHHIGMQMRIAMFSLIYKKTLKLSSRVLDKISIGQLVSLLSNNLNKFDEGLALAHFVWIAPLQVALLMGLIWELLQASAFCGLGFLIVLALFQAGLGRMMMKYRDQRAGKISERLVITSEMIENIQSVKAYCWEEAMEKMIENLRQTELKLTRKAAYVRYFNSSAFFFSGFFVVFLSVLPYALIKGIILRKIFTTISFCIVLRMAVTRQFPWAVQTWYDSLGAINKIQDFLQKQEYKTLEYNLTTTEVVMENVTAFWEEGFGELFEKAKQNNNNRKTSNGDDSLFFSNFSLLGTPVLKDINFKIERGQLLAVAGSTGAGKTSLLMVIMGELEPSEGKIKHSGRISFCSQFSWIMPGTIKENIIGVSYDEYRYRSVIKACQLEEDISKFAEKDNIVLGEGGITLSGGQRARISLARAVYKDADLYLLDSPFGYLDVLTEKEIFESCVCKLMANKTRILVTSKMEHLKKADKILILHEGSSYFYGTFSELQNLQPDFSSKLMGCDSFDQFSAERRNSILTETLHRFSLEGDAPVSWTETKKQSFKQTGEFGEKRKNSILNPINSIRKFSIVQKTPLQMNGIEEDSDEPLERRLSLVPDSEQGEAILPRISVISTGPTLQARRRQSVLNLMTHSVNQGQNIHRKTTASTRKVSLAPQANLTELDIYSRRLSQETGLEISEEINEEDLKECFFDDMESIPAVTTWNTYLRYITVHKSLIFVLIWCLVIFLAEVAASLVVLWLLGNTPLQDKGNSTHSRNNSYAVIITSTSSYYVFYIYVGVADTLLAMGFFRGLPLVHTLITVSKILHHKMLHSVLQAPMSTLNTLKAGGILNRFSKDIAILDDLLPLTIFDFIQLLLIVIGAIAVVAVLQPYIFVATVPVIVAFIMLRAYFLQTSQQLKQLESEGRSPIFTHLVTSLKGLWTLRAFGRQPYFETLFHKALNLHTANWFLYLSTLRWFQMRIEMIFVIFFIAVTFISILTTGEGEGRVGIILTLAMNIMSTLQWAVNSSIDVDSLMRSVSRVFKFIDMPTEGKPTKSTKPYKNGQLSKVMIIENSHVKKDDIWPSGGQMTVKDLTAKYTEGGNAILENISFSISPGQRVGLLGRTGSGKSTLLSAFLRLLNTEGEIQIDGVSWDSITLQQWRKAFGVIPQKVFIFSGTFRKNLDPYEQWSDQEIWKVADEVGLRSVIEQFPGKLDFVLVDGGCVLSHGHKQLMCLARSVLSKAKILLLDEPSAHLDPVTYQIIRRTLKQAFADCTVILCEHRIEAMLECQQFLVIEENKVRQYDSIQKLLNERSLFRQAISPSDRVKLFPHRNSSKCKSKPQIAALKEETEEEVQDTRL

Broadly, the EC50 is the midpoint of the concentration-response curve. By Emax is commonly meant the maximal effect, on the per cent scale that the assay sets. As for `COc1cccc2c1C(=O)N[C@H](C(=O)NCC[C@H]1COc3ccccc3O1)CC(=O)N(C)[C@@H](CC(C)C)C(=O)N(CCC1CCCCC1)CC(=O)N[C@H](Cc1ccccc1)CO2` (racemic) [Example 213, (3R,9S,13S)-3-benzyl-7-(2-cyclohexylethyl)-N-(2-((RS)-2,3-dihydrobenzo[b][1,4]dioxin-2-yl)ethyl)-9-isobutyl-16-methoxy-10-methyl-5,8,11,15-tetraoxo-2,3,4,5,6,7,8,9,10,11,12,13,14,15-tetradecahydrobenzo[p][1]oxa[4,7,10,14]tetraazacycloheptadecine-13-carboxamide], the EC50 came out at 292 nM. The Emax (U2OS) amounted to 100%.

In the case of `COc1ccc(CCNC(=O)[C@@H]2CC(=O)N(C)[C@@H](CC(C)C)C(=O)N(CCC3CCCCC3)CC(=O)N[C@H](Cc3ccccc3)COc3cccc(OC)c3C(=O)N2)cc1` (racemic) [Example 219, (3R,9S,13RS)-3-benzyl-7-(2-cyclohexylethyl)-9-isobutyl-16-methoxy-N-(4-methoxyphenethyl)-10-methyl-5,8,11,15-tetraoxo-2,3,4,5,6,7,8,9,10,11,12,13,14,15-tetradecahydrobenzo[p][1]oxa[4,7,10,14]tetraazacycloheptadecine-13-carboxamide], the EC50 was determined as 206 nM. Further, under “U2OS”, the Emax was found to be 182%. For the compound `CN1C(=O)C[C@@H](C(=O)NCCc2ccc3c(c2)OCO3)NC(=O)c2c(ccc3ccccc23)OC[C@@H](Cc2ccccc2)NC(=O)CN(C[C@@H]2CCCCO2)C(=O)[C@@H]1CC1CCCC1` (racemic) [Example 284, (3RS,7S,13R)-N-(2-(benzo[d][1,3]dioxol-5-yl)ethyl)-13-benzyl-7-(cyclopentylmethyl)-6-methyl-1,5,8,11-tetraoxo-9-(((S)-tetrahydro-2H-pyran-2-yl)methyl)-1,2,3,4,5,6,7,8,9,10,11,12,13,14-tetradecahydronaphtho[1,2-p][1]oxa[4,7,10,14]tetraazacycloheptadecine-3-carboxamide], the Emax (U2OS) stood at 136%. Still for that read-out and setting: to `CN1C(=O)C[C@@H](C(=O)NCCc2ccc3c(c2)OCO3)NC(=O)c2c(ccc3ccccc23)OC[C@@H](Cc2ccccc2)NC(=O)CN(C[C@@H]2CCCCO2)C(=O)[C@@H]1CC1CCCCC1` (racemic) [Example 285, (3RS,7S,13R)-N-(2-(benzo[d][1,3]dioxol-5-yl)ethyl)-13-benzyl-7-(cyclohexylmethyl)-6-methyl-1,5,8,11-tetraoxo-9-(((S)-tetrahydro-2H-pyran-2-yl)methyl)-1,2,3,4,5,6,7,8,9,10,11,12,13,14-tetradecahydronaphtho[1,2-p][1]oxa[4,7,10,14]tetraazacycloheptadecine-3-carboxamide] belongs 118%; to `CN1C(=O)C[C@@H](C(=O)NCCc2ccc3c(c2)OCO3)NC(=O)c2c(ccc3ccccc23)OC[C@@H](Cc2ccccc2)NC(=O)CN(C[C@H]2CCCCO2)C(=O)[C@@H]1CC1CCCC1` (racemic) [Example 286, (3RS,7S,13R)-N-(2-(benzo[d][1,3]dioxol-5-yl)ethyl)-13-benzyl-7-(cyclopentylmethyl)-6-methyl-1,5,8,11-tetraoxo-9-(((R)-tetrahydro-2H-pyran-2-yl)methyl)-1,2,3,4,5,6,7,8,9,10,11,12,13,14-tetradecahydronaphtho[1,2-p][1]oxa[4,7,10,14]tetraazacycloheptadecine-3-carboxamide], 144%. On to `CN1C(=O)C[C@@H](C(=O)NCCc2ccc3c(c2)OCO3)NC(=O)c2c(ccc3ccccc23)OC[C@@H](Cc2ccccc2)NC(=O)CN(C[C@H]2CCCCO2)C(=O)[C@@H]1CC1CCCCC1` (racemic) [Example 287, (3RS,7S,13R)-N-(2-(benzo[d][1,3]dioxol-5-yl)ethyl)-13-benzyl-7-(cyclohexylmethyl)-6-methyl-1,5,8,11-tetraoxo-9-(((R)-tetrahydro-2H-pyran-2-yl)methyl)-1,2,3,4,5,6,7,8,9,10,11,12,13,14-tetradecahydronaphtho[1,2-p][1]oxa[4,7,10,14]tetraazacycloheptadecine-3-carboxamide], for which the 50% effective concentration (EC50) is 207 nM. Further, the Emax (U2OS) worked out at 154%.

For the compound `CN1C(=O)C[C@@H](C(=O)NCCc2ccc3c(c2)OCO3)NC(=O)c2c(ccc3ccccc23)OC[C@@H](Cc2ccccc2)NC(=O)CN(CC[C@H]2CCCCO2)C(=O)[C@@H]1CC1CCCC1` (racemic) [Example 288, (3RS,7S,13R)-N-(2-(benzo[d][1,3]dioxol-5-yl)ethyl)-13-benzyl-7-(cyclopentylmethyl)-6-methyl-1,5,8,11-tetraoxo-9-(2-((SR)-tetrahydro-2H-pyran-2-yl)ethyl)-1,2,3,4,5,6,7,8,9,10,11,12,13,14-tetradecahydronaphtho[1,2-p][1]oxa[4,7,10,14]tetraazacycloheptadecine-3-carboxamide], the EC50 turned out to be 147 nM. In addition, the Emax (U2OS) came to 175%. As for `CN1C(=O)C[C@@H](C(=O)NCCc2ccc3c(c2)OCO3)NC(=O)c2c(ccc3ccccc23)OC[C@@H](Cc2ccccc2)NC(=O)CN(CC[C@H]2CCCCO2)C(=O)[C@@H]1CC1CCCCC1` (racemic) [Example 289, (3RS,7S,13R)-N-(2-(benzo[d][1,3]dioxol-5-yl)ethyl)-13-benzyl-7-(cyclohexylmethyl)-6-methyl-1,5,8,11-tetraoxo-9-(2-((SR)-tetrahydro-2H-pyran-2-yl)ethyl)-1,2,3,4,5,6,7,8,9,10,11,12,13,14-tetradecahydronaphtho[1,2-p][1]oxa[4,7,10,14]tetraazacycloheptadecine-3-carboxamide], the EC50 stood at 186 nM. Moreover, the Emax (U2OS) came out at 160%. As to `CN1C(=O)C[C@@H](C(=O)NCCc2ccc3c(c2)OCO3)NC(=O)c2c(ccc3ccccc23)OC[C@@H](Cc2ccccc2)NC(=O)CN(CCC2CCCCC2)C(=O)[C@@H]1CC1CCCC1` (racemic) [Example 290, (3RS,7S,13R)-N-(2-(benzo[d][1,3]dioxol-5-yl)ethyl)-13-benzyl-9-(2-cyclohexylethyl)-7-(cyclopentylmethyl)-6-methyl-1,5,8,11-tetraoxo-1,2,3,4,5,6,7,8,9,10,11,12,13,14-tetradecahydronaphtho[1,2-p][1]oxa[4,7,10,14]tetraazacycloheptadecine-3-carboxamide], the Emax (U2OS) was 260%.

As for `CN1C(=O)C[C@@H](C(=O)NCCc2ccc3c(c2)OCO3)NC(=O)c2c(ccc3ccccc23)OC[C@@H](Cc2ccccc2)NC(=O)CN(CCC2CCCCC2)C(=O)[C@@H]1CC1CCCCC1` (racemic) [Example 291, (3RS,7S,13R)-N-(2-(benzo[d][1,3]dioxol-5-yl)ethyl)-13-benzyl-9-(2-cyclohexylethyl)-7-(cyclohexylmethyl)-6-methyl-1,5,8,11-tetraoxo-1,2,3,4,5,6,7,8,9,10,11,12,13,14-tetradecahydronaphtho[1,2-p][1]oxa[4,7,10,14]tetraazacycloheptadecine-3-carboxamide], the EC50 turned out to be 109 nM. The maximal effect (Emax) (U2OS) came to 210%. With `CN1C(=O)C[C@@H](C(=O)NCCc2ccc3c(c2)OCO3)NC(=O)c2c(ccc3ccccc23)OC[C@@H](Cc2ccccc2)NC(=O)CN(CCC2CCCCC2)C(=O)[C@@H]1CC1CCC1` (racemic) [Example 292, (3RS,7S,13R)-N-(2-(benzo[d][1,3]dioxol-5-yl)ethyl)-13-benzyl-7-(cyclobutylmethyl)-9-(2-cyclohexylethyl)-6-methyl-1,5,8,11-tetraoxo-1,2,3,4,5,6,7,8,9,10,11,12,13,14-tetradecahydronaphtho[1,2-p][1]oxa[4,7,10,14]tetraazacycloheptadecine-3-carboxamide], the Emax (U2OS) is 191%. In the case of `COc1cccc(CCNC(=O)[C@@H]2CC(=O)N(C)[C@@H](CC3CCCC3)C(=O)N(C[C@@H]3CCCCO3)CC(=O)N[C@H](Cc3ccccc3)COc3ccc4ccccc4c3C(=O)N2)c1` (racemic) [Example 293, (3RS,7S,13R)-13-benzyl-7-(cyclopentylmethyl)-N-(3-methoxyphenethyl)-6-methyl-1,5,8,11-tetraoxo-9-(((S)-tetrahydro-2H-pyran-2-yl)methyl)-1,2,3,4,5,6,7,8,9,10,11,12,13,14-tetradecahydronaphtho[1,2-p][1]oxa[4,7,10,14]tetraazacycloheptadecine-3-carboxamide], the Emax was 137%. On to `COc1cccc(CCNC(=O)[C@@H]2CC(=O)N(C)[C@@H](CC3CCCCC3)C(=O)N(C[C@@H]3CCCCO3)CC(=O)N[C@H](Cc3ccccc3)COc3ccc4ccccc4c3C(=O)N2)c1` (racemic) [Example 294, (3RS,7S,13R)-13-benzyl-7-(cyclohexylmethyl)-N-(3-methoxyphenethyl)-6-methyl-1,5,8,11-tetraoxo-9-(((S)-tetrahydro-2H-pyran-2-yl)methyl)-1,2,3,4,5,6,7,8,9,10,11,12,13,14-tetradecahydronaphtho[1,2-p][1]oxa[4,7,10,14]tetraazacycloheptadecine-3-carboxamide], for which the EC50 was found to be 265 nM. Further, where the note is “U2OS”, the Emax was 138%. For the compound `COc1cccc(CCNC(=O)[C@@H]2CC(=O)N(C)[C@@H](CC3CCCC3)C(=O)N(C[C@@H]3CCCCO3)CC(=O)N[C@H](Cc3ccccc3)COc3ccc4ccccc4c3C(=O)N2)c1` (racemic) [Example 295, (3RS,7S,13R)-13-benzyl-7-(cyclopentylmethyl)-N-(3-methoxyphenethyl)-6-methyl-1,5,8,11-tetraoxo-9-(((R)-tetrahydro-2H-pyran-2-yl)methyl)-1,2,3,4,5,6,7,8,9,10,11,12,13,14-tetradecahydronaphtho[1,2-p][1]oxa[4,7,10,14]tetraazacycloheptadecine-3-carboxamide], the Emax turned out to be 174%. `COc1cccc(CCNC(=O)[C@@H]2CC(=O)N(C)[C@@H](CC3CCCCC3)C(=O)N(C[C@H]3CCCCO3)CC(=O)N[C@H](Cc3ccccc3)COc3ccc4ccccc4c3C(=O)N2)c1` (racemic) [Example 296, (3RS,7S,13R)-13-benzyl-7-(cyclohexylmethyl)-N-(3-methoxyphenethyl)-6-methyl-1,5,8,11-tetraoxo-9-(((R)-tetrahydro-2H-pyran-2-yl)methyl)-1,2,3,4,5,6,7,8,9,10,11,12,13,14-tetradecahydronaphtho[1,2-p][1]oxa[4,7,10,14]tetraazacycloheptadecine-3-carboxamide]: the Emax (U2OS) was found to be 144%.
